Results reported in the SangsterLogP compilation.

How the values were obtained:
[1] = method code SF-RC/EIA, from DOI: 10.1016/s0022-2275(20)42614-8, PMID: 2280184; conditions: pH 1.0
[2] = method code SF-RC, from DOI: 10.1016/j.nucmedbio.2016.03.005, PMID: 27179748; conditions: pH 7.4
[3] = method code SF-HPLC, from DOI: 10.1016/j.bmc.2009.01.040, PMID: 19208447; conditions: pH 7.0
[4] = method code SF-HPLC, from DOI: 10.1016/s0969-8043(00)00269-4, PMID: 11200881; conditions: pH 7.4
[5] = method code SF-HPLC, from DOI: 10.1023/a:1011018730459, PMID: 11451042
[6] = method code SF-HPLC, from DOI: 10.3109/14756366.2013.845817, PMID: 24156741
[7] = pH 7.4
[8] = method code SF-RC/EN, from DOI: 10.1016/s0022-2275(20)42614-8, PMID: 2280184; conditions: pH 1.0
[9] = not given; remark: listed apart in the source
[10] = not given; remark: listed apart in the source
[11] = not given; remark: listed apart in the source
[12] = method code SF-RC, from DOI: 10.1016/j.nucmedbio.2016.05.003, PMID: 27236283; conditions: pH 7.4
[13] = not given; remark: listed apart in the source
[14] = method code SF-AS, from DOI: 10.1248/cpb.45.1287, PMID: 9301027
[15] = method code SF-HPLC, from DOI: 10.2174/1871523013666141114203105, PMID: 25403255; conditions: pH 7.4
[16] = method code SF-AS, from DOI: 10.1016/s0021-9673(01)89522-4
[17] = not given; remark: listed apart in the source
[18] = method code SF-HPLC, from DOI: 10.1016/0378-5173(89)90313-x; conditions: pH 7.4
[19] = method code SF-AS, from DOI: 10.1562/0031-8655(2003)0780411sacotn2.0.co2, PMID: 14626671; conditions: pH 6.8
[20] = not given; remark: listed apart in the source
[21] = method code SF-AS, from DOI: 10.1021/jf970979g, PMID: 10554305
[22] = method code SF-HPLC, from DOI: 10.1021/jm00056a006, PMID: 8474102; conditions: pH 7.4
[23] = not given; remark: listed apart in the source
[24] = method code SF, from DOI: 10.1016/j.bmcl.2009.04.053, PMID: 19409782
[25] = method code SF-AS, from DOI: 10.1002/jps.2600830406, PMID: 7913964

## C[C@H](CCC(=O)NCC(=O)O)[C@H]1CC[C@H]2[C@@H]3[C@H](O)C[C@@H]4C[C@H](O)CC[C@]4(C)[C@H]3CC[C@]12C
[1]
  logD: 2.12

## COc1ccc(S(=O)(=O)N(Cc2cn(CCOCCOCCOCCF)nn2)C(C(=O)NO)C(C)C)cc1 (stereo not given)
[2]
  logD: 0.23

## O=C(c1ccccc1)c1cccc(C(O)C(=O)OCC2OC(OC3OC(CO)C(O)C(O)C3O)C(O)C(O)C2O)c1 (stereo not given)
[3]
  logD: -0.25

## COc1ccccc1N1CCN(CCN(C(=O)C2CCCCC2)c2ccccn2)CC1
[4]
  logD: 3.1

## CCC1C[C@H]2[C@@H]3CCC4=CC(=O)CC[C@@H]4[C@H]3CC[C@]2(C)C1C(=O)CO (stereo not given in full)
other
  logP: 4.21

## COc1cc(C(=O)OCC2OC(n3cnc4c(NC5CCCC5)ncnc43)C(O)C2O)cc(OC)c1OC (stereo not given)
[5]
  logP: 2.27

## C#CCn1cc(C(=O)NC(C(=O)NC2CCCC2)c2ccccc2)c(=O)c2cc(F)c(Cl)nc21 (stereo not given)
[6]
  logP: 6.22

## O=C(C=Cc1cc([N+](=O)[O-])cc2c1OCO2)N1CCC2(CC1)C(=O)NCN2c1ccccc1
[7]
  logD: 3.1

## C[C@H](CCC(=O)O)C1CCC2C3C(CC[C@@]21C)[C@@]1(C)CC[C@@H](O)CC1C[C@H]3O (stereo not given in full)
[8]
  logD: 3.28

## CC(C(=O)OCC(O)C(OC1OC(CO)C(O)C(O)C1O)C(O)C(O)C=O)c1cccc(C(=O)c2ccccc2)c1 (stereo not given)
[3]
  logD: -0.13

## C[C@H](CCC(=O)NCC(=O)O)[C@H]1CC[C@H]2[C@@H]3[C@H](O)C[C@@H]4C[C@H](O)CC[C@]4(C)[C@H]3C[C@H](O)[C@]12C
[1]
  logD: 1.65

## CCC1C[C@H]2[C@@H]3CCC4=CC(=O)CC[C@@H]4[C@H]3CC[C@]2(C)[C@H]1C(=O)CF (stereo not given in full)
other
  logP: 4.41

## O=C1CC2(CCCC2)CC(=O)N1CCCCN1CCN(c2ccc3ccccc3n2)CC1
[9]
  logP: 4.23

## CC(=O)OC1C(=O)C2(C)C(O)CC3OCC3(OC(C)=O)C2C(OC(=O)c2ccccc2)C2(O)CC(OC(=O)C(O)CNC(=O)c3ccccc3)C(C)=C1C2(C)C (stereo not given)
[10]
  logP: 1.92

## C#C[C@]1(O)CC[C@H]2[C@@H]3CCc4cc(O)ccc4[C@H]3[C@@H](CC)C[C@@]21C
[11]
  logP: 4.28

## COc1cc(NCCCF)cc(OC)c1NC(=O)c1ccc(Cc2cc3c(cc2C)CCCC3(C)C)o1
[12]
  logD: 1.43

## CCOC(=O)C1=C(C)NC(C)=C(C(=O)OCC)C1c1ccccc1/C=C/C(=O)OC(C)(C)C
[13]
  logP: 4.43

## C#CCn1cc(C(=O)NC(c2ccccc2)C(O)C(=O)Nc2ccccc2)c(=O)c2cc(F)c(Cl)nc21 (stereo not given)
[6]
  logP: 5.55

## CCOCCn1c(N2CCCN(CCCCn3cccn3)CC2)nc2ccccc21
[14]
  logP: 3.99

## CCCCCCCC(=O)OCC1OC(n2cnc3c(NC4CCCC4)ncnc32)C(O)C1O (stereo not given)
[5]
  logP: 3.91

## CC1CCC(C(C)C)C(OC(=O)COC(=O)Cc2ccccc2Nc2c(Cl)cccc2Cl)C1 (stereo not given)
[15]
  logD: 5.07

## CC12CCC(O)CC1CCC1C2CCC2(C)C(C3=CC(=O)OC3)C(O)CC12O (stereo not given)
[16]
  logP: 1.76

## CCOC(=O)C1(c2ccccc2)CCN(CCC(O)c2ccccc2)CC1 (stereo not given)
[17]
  logP: 4.04

## CN1C=CCC(C(=O)NCCCOC(=O)CCCc2ccc(N(CCCl)CCCl)cc2)=C1
[18]
  logD: 2.75

## Cc1ccc(C(C)C)c(OC(=O)COC(=O)Cc2ccccc2Nc2c(Cl)cccc2Cl)c1
[15]
  logD: 5.08

## COc1cc(OCCF)cc(OC)c1NC(=O)c1ccc(Cc2cc3c(cc2C)CCCC3(C)C)o1
[12]
  logD: 1.85

## COC1=C2CC(C)=c3c(C(C)=O)c(OC)c(O)c4c3c2c2c(cc(OC)c3c(OC)cc(O)c4c32)C(=O)C1=O
[19]
  logD: 1.67

## CC(C)(C)NCC(COc1nsnc1N1CCOCC1)OC(=O)c1ccccc1COC(=O)c1ccccc1 (stereo not given)
[20]
  logP: 4.37

## CC(NC1=CC(=O)C(NC(C)c2ccccc2)=CC1=O)c1ccccc1 (stereo not given)
[21]
  logP: 0.98

## CC(=O)O[C@H]1C(=O)[C@@]2(C)[C@H]([C@H](OC(=O)c3ccccc3)[C@]3(O)C[C@H](OC(=O)[C@@H](C)O)C(C)=C1C3(C)C)[C@]1(OC(C)=O)CO[C@@H]1C[C@@H]2O
[10]
  logP: 1.52

## COc1cc([N+](=O)[O-])cc(C=CC(=O)N2CCC(n3c(=O)[nH]c4ccccc43)CC2)c1OC
[7]
  logD: 3

## CC(C)CC(O)C(O)C(CC1CCCCC1)NC(=O)C(Cc1cscn1)NC(=O)C(Cc1ccccc1)CS(=O)(=O)C1CCN(C)C1 (stereo not given)
[22]
  logD: 3.61

## CCOCCn1c(CN2CCCN(CCCCn3cccn3)CC2)nc2ccccc21
[14]
  logP: 4.61

## CC(C(=O)C1c2cccc(O)c2C(=O)c2c(O)cccc21)c1ccc(Cc2ccccc2)cc1 (stereo not given)
[23]
  logP: 4.46

## CN1C=CCC(C(=O)NCC(OC(=O)CCCc2ccc(N(CCCl)CCCl)cc2)c2ccccc2)=C1 (stereo not given)
[18]
  logD: 2.29

## C[C@H](CCC(=O)O)[C@H]1CC[C@H]2[C@@H]3[C@H](O)C[C@@H]4C[C@H](O)CC[C@]4(C)[C@H]3C[C@H](O)[C@]12C
[8]
  logD: 2.02

## COc1c(O)c2c(=O)cc(OC)c3c4c(OC)cc(=O)c5c(O)c(NCCN(C)C)c6c(c(c1C(C(C)=O)=C(C)C6)c23)c54
[19]
  logD: 0.5

## O=[N+]([O-])N=C1N(Cc2ccc(Cl)nc2)CCN1Cc1ccc2c(c1)OCCOCCOCCOCCO2
[24]
  logP: -0.82

## COC(=O)[C@@H]1C[C@H]2[C@@H]3CCC4=CC(=O)C=C[C@]4(C)[C@H]3[C@@H](O)C[C@]2(C)[C@H]1C(=O)CO
[25]
  logP: 1.7

## C[C@H](CN1CCOCC1)C(C(=O)N1CCCC1)(c1ccccc1)c1ccccc1
[17]
  logP: 3.61

## O=C1C2C3CCC(CC3)C2C(=O)N1CCCCN1CCN(c2ccc3ccccc3n2)CC1 (stereo not given)
[9]
  logP: 4.1

## COC(=O)C1=C(C)NC(C)=C(C(=O)OCCN2CCN(C(c3ccccc3)c3ccccc3)CC2)C1c1cccc([N+](=O)[O-])c1 (stereo not given)
[13]
  logP: 5.2

## COc1ccc(S(=O)(=O)N(Cc2ccc(OCCOCCOCCOCCOCc3cn(CCF)nn3)cc2)[C@@H](C(=O)NO)C(C)C)cc1
[2]
  logD: 1.24

## CC12CCC(O)CC1CCC1C2CCC2(C)C(C3=CC(=O)OC3)CCC12O (stereo not given)
[16]
  logP: 2.64

## CNc1cccc(NC(=O)N[C@@H]2N=C(c3ccccn3)c3ccccc3N(CC(=O)C(C)(C)C)C2=O)c1
[4]
  logD: 2.68

## COC(=O)[C@@H]1C[C@H]2[C@@H]3CCC4=CC(=O)C=C[C@]4(C)[C@@]3(F)[C@@H](O)C[C@]2(C)[C@H]1C(=O)CO
[25]
  logP: 1.78

## CC(NC1=CC(=O)C(NC(C)C(O)c2ccccc2)=CC1=O)C(O)c1ccccc1 (stereo not given)
[21]
  logP: 1.42

## C#C[C@@]1(O)[C@@H](F)C[C@H]2[C@@H]3CCc4cc(O)ccc4[C@H]3[C@@H](CC)C[C@@]21C
[11]
  logP: 4.12

## O=[N+]([O-])N=C1N(Cc2ccc(Cl)nc2)CCN1Cc1ccc2c(c1)OCCOCCOCCOCCOCCO2
[24]
  logP: -0.55

## COc1ccc2c(c1)c(CC(=O)C1c3cccc(O)c3C(=O)c3c(O)cccc31)c(C)n2C(=O)c1ccc(Cl)cc1
[23]
  logP: 5.17
